A short description of data set [1]: Waters ACQUITY UPLC BEH C18, 100 × 2.1 mm, 1.7 µm, 40 °C, 0.28 mL/min, estimated dead time 0.63 min; A: water + 6.5 mM ammonium hydroxide; B: methanol + 6.5 mM ammonium hydroxide; gradient (min/%B) 0/0.5 4/70 4.5/98 5.4/98. The settings on record: stereoisomer not certain.
Data set [2] is described as follows: RP, Waters ACQUITY UPLC HSS C18, 100 × 2.1 mm, 1.7 µm, 40 °C, 0.35 mL/min, estimated dead time 0.63 min; A: water + 0.1% formic acid; B: methanol + 0.1% formic acid; gradient (min/%B) 0/0.5 4/70 4.5/98 5.4/98. The settings on record: stereoisomer not certain.

As to `O=C(O)C(O)c1ccccc1` (configuration not stated), the LC retention time in data set [1] is 1.59 min.

For `NCCCCC(N)C(=O)O` (configuration not stated), the LC retention time in data set [1] was 0.794 min.

`O=C(CO)C(O)C(O)C(O)CO` (configuration not stated): the LC retention time in data set [1] was 0.816 min.

In the case of `CC(C)(CO)C(O)C(=O)NCCC(=O)O` (configuration not stated), in data set [1], the LC retention time is 1.7 min.

With `O=C(O)CNC(=O)c1ccco1`, the LC retention time in data set [1] was 1.7 min.

Regarding `N#CCc1c[nH]c2ccccc12`, in data set [1], the LC retention time is 4.53 min.

Consider `O=C(O)CCc1ccccc1O`, for which the LC retention time in data set [1] is 2.93 min.

Turning to `O=CCc1c[nH]c2ccccc12`, in data set [1], the LC retention time is 4.4 min.

As for `CC=C(C)C(=O)O`, in data set [1], the LC retention time was 1.61 min.

Take `O=C1OC(C(O)CO)C(=O)C1=O` (configuration not stated): the LC retention time in data set [1] is 0.862 min.

Turning to `CC(=O)C1C(=O)C=C(C)OC1=O` (configuration not stated), the LC retention time in data set [1] is 2.04 min.

For the compound `CC(C)CCC(=O)O`, the LC retention time in data set [1] is 3.06 min.

As for `O=C(O)CCCC(O)C(=O)O` (configuration not stated), in data set [2], the LC retention time is 1.89 min.

Turning to `O=C(O)C(O)C(O)C(O)C(=O)CO` (configuration not stated), in data set [2], the LC retention time is 0.808 min.

Take `CN(C)CCc1ccccc1`: in data set [2], the LC retention time is 2.61 min.

With `CCOC(=O)C(=O)C(C)C(=O)OCC` (configuration not stated), the LC retention time in data set [2] is 4.56 min.

`O=CNCC(=O)O`: the LC retention time in data set [2] was 0.919 min.

Regarding `CCCC(NC(C)C(=O)N1C(C(=O)O)CC2CCCCC21)C(=O)OCC` (configuration not stated), the LC retention time in data set [2] was 4.66 min.

Turning to `O=C(O)C1(O)CC(O)C(O)C(O)C1` (configuration not stated), in data set [2], the LC retention time was 0.867 min.

In the case of `CCCCCCCCCC(=O)OC(CC(=O)[O-])C[N+](C)(C)C` (configuration not stated), the LC retention time in data set [2] is 5.25 min.

For the compound `O=S(=O)(O)c1ccc(O)cc1`, the LC retention time in data set [2] was 1.02 min.

For the compound `CCC(=O)OC(CC(=O)[O-])C[N+](C)(C)C` (configuration not stated), in data set [2], the LC retention time was 1.82 min.

As for `Cc1occc(=O)c1O`, the LC retention time in data set [2] is 2.77 min.

As to `O=P(O)(O)OCC1OC(O)C(O)C(O)C1O` (configuration not stated), the LC retention time in data set [2] was 0.783 min.

On to `O=C(O)C=Cc1cnc[nH]1`, for which the LC retention time in data set [2] is 1.16 min.

On to `C[N+](C)(C)CCOP(=O)([O-])OCC(O)CO` (configuration not stated), for which, in data set [2], the LC retention time is 0.764 min.

Take `O=C(O)C#Cc1ccccc1`: the LC retention time in data set [2] is 4.39 min.

With `O=P(O)(O)OCC1OC(O)C(O)C1O` (configuration not stated), the LC retention time in data set [2] was 0.778 min.

For `COc1cc(C=CC(=O)O)ccc1O`, the LC retention time in data set [2] was 3.87 min.

`Nc1ccc(C(=O)O)c(O)c1`: the LC retention time in data set [2] is 2.69 min.

Take `COc1ccc(-c2oc3cc(O)ccc3c(=O)c2O)cc1O`: the LC retention time in data set [2] is 3.62 min.

Take `CC(=CC(=O)O)CC(=O)O`: the LC retention time in data set [2] was 3.07 min.

As for `O=C(O)CCCCCC(=O)O`, in data set [2], the LC retention time was 3.46 min.

On to `CC(=O)OCC[N+](C)(C)C`, for which the LC retention time in data set [2] was 0.907 min.

`Cn1c(=O)[nH]c2[nH]c(=O)[nH]c2c1=O`: the LC retention time in data set [2] is 2.1 min.

For the compound `Oc1c[nH]c2ccccc12`, in data set [2], the LC retention time was 3.85 min.

In the case of `O=C(O)C=Cc1ccc(O)cc1`, in data set [2], the LC retention time was 3.76 min.

As to `NC12CC3CC(CC(C3)C1)C2`, the LC retention time in data set [2] is 3.49 min.

Regarding `NC(CCC(=O)NC(CS)C(=O)NCC(=O)O)C(=O)O` (configuration not stated), in data set [2], the LC retention time was 3.37 min.

Regarding `CC1NCCc2cc(O)c(O)cc21` (configuration not stated), the LC retention time in data set [2] was 1.61 min.

As for `Cn1c(=O)c2c(ncn2C)n(C)c1=O`, the LC retention time in data set [2] was 3.23 min.

Turning to `CC12CCC(=O)C=C1CCC1C2C(O)CC2(C)C(C(=O)CO)CCC12` (configuration not stated), the LC retention time in data set [2] was 5.31 min.

As for `CNCCC(Oc1ccccc1C)c1ccccc1` (configuration not stated), the LC retention time in data set [2] was 4.72 min.

With `COc1ccccc1C=CC=O`, the LC retention time in data set [2] was 5.02 min.

Consider `O=C(O)C1OC(Oc2c[nH]c3ccccc23)C(O)C(O)C1O` (configuration not stated), for which, in data set [2], the LC retention time was 2.98 min.

`CC(=O)OCC1OC(OC(C)=O)C(OC(C)=O)C(OC(C)=O)C1OC(C)=O` (configuration not stated): the LC retention time in data set [2] is 4.5 min.

As to `NC(CSCC(=O)O)C(=O)O` (configuration not stated), the LC retention time in data set [2] was 0.873 min.

On to `NC1CCSC1=O` (configuration not stated), for which the LC retention time in data set [2] was 0.873 min.

Take `OC(CCN1CCCCC1)(c1ccccc1)C1CCCCC1` (configuration not stated): the LC retention time in data set [2] was 4.77 min.

`COC(=O)C1=C(C)NC(C)=C(C(=O)OCCN(C)Cc2ccccc2)C1c1cccc([N+](=O)[O-])c1` (configuration not stated): the LC retention time in data set [2] was 4.6 min.

For `O=C(O)CCO`, in data set [2], the LC retention time is 0.782 min.

As to `CN1C2CCC1CC(OC(=O)C(CO)c1ccccc1)C2` (configuration not stated), in data set [2], the LC retention time was 3.22 min.

`OCC(O)C(O)C(OC1OC(CO)C(O)C(O)C1O)C(O)CO` (configuration not stated): the LC retention time in data set [2] is 4.47 min.

Turning to `Nc1ccc(O)cc1`, the LC retention time in data set [2] was 0.829 min.

Consider `NC(=O)Cc1ccccc1`, for which the LC retention time in data set [2] was 3.38 min.

Consider `Nc1ccc(O)c(C(=O)O)c1`, for which the LC retention time in data set [2] was 1.54 min.

As to `NC(N)=S`, the LC retention time in data set [2] was 0.847 min.

Source of the values: the RepoRT retention time repository (doi:10.1038/s41586-021-03707-9).
